Data taken from ChEMBL document CHEMBL1201862, “PubChem BioAssay data set” (2004).
Active and inactive are the calls of the source.

Assays:
[1] = biological target: T1, Protein Tat (Human immunodeficiency virus type 1 group M subtype B (isolate HXB2)(HIV-1), UniProt P04608); format: functional;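 also: tat binding to TAR RNA read out by fluorescence polarization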
T1 sequence (P04608 whole entry): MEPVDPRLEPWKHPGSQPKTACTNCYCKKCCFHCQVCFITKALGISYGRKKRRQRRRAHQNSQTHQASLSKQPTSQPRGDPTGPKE

[2] = biological target: Small ubiquitin-related modifier 2 (Homo sapiens, UniProt P61956); test: SUMO2 binding disruption by SUMO1 hits – biochemical, FRET, human SUMO2, uHTS hits, selectivity assay for SUMO1 interaction inhibitor project, dose response (AID 624384); format: functional; conditions: read-out: IC50_Mean
[3] = biological target: Fatty acid synthase (Homo sapiens, UniProt P49327); test: inhibition of human FAS-TE enzyme activity – biochemical, endpoint fluorescence intensity, uHTS hits, dose response (AID 624327); format: functional;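 also: fluorescence from hydrolysis of an O-methyl fluorescein acyl ester substrate by the enzyme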
Sequence of Fatty acid synthase (P49327 whole entry): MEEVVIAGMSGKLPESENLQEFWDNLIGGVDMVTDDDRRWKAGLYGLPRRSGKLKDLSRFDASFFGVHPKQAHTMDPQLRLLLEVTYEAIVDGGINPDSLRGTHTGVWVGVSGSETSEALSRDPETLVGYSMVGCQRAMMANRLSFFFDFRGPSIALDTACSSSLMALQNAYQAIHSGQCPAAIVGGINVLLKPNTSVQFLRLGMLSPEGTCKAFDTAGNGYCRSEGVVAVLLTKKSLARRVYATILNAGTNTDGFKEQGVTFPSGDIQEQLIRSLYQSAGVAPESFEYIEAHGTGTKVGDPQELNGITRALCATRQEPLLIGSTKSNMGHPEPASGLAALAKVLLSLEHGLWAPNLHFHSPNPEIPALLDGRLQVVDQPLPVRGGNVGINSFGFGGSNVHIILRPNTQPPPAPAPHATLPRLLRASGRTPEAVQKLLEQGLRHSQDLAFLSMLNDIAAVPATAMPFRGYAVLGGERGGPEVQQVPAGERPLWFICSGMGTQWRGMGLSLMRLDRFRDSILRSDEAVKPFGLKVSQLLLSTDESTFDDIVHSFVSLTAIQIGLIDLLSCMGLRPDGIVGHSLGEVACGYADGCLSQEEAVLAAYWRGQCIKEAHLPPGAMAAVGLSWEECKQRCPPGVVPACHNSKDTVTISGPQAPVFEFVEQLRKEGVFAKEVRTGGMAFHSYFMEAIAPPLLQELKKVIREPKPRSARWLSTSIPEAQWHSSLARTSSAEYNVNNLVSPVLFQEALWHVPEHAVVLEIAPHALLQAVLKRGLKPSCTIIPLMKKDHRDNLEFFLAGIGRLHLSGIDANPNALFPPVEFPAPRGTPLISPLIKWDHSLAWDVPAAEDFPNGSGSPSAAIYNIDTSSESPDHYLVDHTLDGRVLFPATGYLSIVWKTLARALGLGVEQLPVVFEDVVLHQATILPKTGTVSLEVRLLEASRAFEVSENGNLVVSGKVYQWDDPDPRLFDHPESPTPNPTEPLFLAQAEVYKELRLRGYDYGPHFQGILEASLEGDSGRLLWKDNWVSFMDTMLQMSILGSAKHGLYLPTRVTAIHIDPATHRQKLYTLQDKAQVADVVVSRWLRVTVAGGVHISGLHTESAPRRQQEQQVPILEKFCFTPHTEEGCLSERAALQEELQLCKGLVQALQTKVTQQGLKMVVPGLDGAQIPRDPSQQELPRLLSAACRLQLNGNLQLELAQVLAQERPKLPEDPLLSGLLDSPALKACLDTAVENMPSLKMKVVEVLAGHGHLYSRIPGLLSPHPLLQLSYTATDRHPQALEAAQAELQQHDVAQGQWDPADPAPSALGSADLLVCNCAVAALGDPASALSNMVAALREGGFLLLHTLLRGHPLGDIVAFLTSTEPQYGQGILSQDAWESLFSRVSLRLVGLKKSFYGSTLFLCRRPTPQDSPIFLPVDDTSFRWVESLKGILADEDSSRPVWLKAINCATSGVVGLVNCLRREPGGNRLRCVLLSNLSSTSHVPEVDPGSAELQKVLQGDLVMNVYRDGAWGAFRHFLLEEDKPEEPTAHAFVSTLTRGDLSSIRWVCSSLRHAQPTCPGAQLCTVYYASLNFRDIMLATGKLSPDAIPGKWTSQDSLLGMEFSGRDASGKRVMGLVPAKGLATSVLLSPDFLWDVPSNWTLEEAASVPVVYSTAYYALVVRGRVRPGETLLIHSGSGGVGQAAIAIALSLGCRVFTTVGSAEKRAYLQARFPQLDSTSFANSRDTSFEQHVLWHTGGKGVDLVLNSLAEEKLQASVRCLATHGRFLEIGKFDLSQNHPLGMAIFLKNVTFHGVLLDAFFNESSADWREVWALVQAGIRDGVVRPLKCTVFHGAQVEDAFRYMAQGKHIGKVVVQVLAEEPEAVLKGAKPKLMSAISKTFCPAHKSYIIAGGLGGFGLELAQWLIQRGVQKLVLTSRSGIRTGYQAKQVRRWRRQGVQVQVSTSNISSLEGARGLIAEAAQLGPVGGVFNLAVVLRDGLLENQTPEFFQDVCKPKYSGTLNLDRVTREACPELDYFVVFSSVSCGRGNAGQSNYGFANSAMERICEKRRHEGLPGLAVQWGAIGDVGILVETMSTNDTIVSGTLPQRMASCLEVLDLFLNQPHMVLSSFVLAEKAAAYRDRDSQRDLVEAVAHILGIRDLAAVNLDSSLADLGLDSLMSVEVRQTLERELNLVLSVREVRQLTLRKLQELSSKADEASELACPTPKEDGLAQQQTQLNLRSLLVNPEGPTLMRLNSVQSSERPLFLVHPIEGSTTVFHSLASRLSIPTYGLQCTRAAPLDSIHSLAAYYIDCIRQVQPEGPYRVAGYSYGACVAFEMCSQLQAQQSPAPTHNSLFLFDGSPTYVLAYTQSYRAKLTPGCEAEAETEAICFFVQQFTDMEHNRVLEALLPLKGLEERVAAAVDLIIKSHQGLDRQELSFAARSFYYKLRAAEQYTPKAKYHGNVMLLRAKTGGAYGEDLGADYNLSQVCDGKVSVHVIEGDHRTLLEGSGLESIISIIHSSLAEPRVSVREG

[4] = biological target: Voltage-gated N-type calcium channel alpha-1B subunit/Amyloid beta A4 precursor protein-binding family A member 1 (Homo sapiens, UniProt Q00975+Q02410); format: protein assay
[5] = biological target: Small ubiquitin-related modifier 1 (Homo sapiens, UniProt P63165); test: SUMO1 protein interaction blockers, potency – biochemical, fluorescence polarization, uHTS hits, dose response (AID 624382); format: functional; conditions: read-out: IC50_Mean
[6] = biological target: T2, Rac GTPase-activating protein 1 (Homo sapiens, UniProt Q9H0H5); test: blockers of MgcRacGAP-driven Rac1 GTP hydrolysis – biochemical, ADP Hunter fluorescence, primary and confirmatory, confirmation (AID 624330); format: functional
T2 sequence (Q9H0H5 whole entry): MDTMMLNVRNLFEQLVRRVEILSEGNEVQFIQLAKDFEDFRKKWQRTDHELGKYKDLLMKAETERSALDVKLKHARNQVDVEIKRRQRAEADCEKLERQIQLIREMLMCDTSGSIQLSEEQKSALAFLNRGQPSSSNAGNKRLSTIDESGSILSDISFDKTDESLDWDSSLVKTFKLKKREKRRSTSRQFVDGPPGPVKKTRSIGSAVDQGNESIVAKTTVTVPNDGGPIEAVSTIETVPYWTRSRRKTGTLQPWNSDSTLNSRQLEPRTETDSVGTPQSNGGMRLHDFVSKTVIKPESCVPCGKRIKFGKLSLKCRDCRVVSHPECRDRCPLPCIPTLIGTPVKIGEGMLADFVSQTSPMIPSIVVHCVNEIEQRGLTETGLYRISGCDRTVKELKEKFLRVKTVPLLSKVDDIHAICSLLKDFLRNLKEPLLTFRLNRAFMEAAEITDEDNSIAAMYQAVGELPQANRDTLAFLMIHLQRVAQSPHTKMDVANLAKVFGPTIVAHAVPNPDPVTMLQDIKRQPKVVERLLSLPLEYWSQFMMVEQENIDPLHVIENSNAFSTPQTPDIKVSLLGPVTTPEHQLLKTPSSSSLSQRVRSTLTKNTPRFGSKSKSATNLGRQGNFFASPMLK

[7] = biological target: T3, Sphingosine 1-phosphate receptor 4 (Homo sapiens, UniProt O95977); test: Fluorescence dose response cell-based high throughput screening assay for antagonists of the Sphingosine 1-Phosphate Receptor 4 (S1P4). [Related pubchem assays: 1524 (Confirmation in triplicates.), 1510 (Primary screen.)]; format: functional
T3 sequence (O95977 whole entry): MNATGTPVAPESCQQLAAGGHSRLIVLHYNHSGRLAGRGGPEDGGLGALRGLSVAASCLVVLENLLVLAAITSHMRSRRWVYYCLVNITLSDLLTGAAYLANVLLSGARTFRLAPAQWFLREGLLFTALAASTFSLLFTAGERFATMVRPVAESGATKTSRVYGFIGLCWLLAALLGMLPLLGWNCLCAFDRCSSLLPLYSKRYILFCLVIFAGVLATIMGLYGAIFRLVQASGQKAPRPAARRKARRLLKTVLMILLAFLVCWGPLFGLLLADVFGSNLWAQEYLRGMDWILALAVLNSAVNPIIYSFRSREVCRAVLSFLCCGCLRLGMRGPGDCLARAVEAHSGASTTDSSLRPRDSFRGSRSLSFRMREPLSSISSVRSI

[8] = biological target: Caspase-7 (Homo sapiens, UniProt P55210); test: caspase-7 enzyme inhibition, selectivity check – biochemical, DEVD-R110 fluorescence, cherry-pick, selectivity assay for caspase-6 inhibitor project, dose response (AID 743295); format: functional
Sequence of Caspase-7 (P55210 24-198 limits assumed): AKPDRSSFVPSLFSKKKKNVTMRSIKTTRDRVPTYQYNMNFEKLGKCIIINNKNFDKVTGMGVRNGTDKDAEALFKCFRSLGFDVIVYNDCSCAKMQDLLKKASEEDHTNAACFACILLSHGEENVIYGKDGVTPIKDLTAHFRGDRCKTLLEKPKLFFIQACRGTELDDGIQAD
Sequence of Caspase-7 (P55210 207-303 limits assumed): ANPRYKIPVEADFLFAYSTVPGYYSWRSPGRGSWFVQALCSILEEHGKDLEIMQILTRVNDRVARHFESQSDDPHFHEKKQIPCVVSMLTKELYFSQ

[9] = biological target: Caspase-9 (Homo sapiens, UniProt P55211); test: inhibitors of purified CASP9 protease – biochemical, fluorescence, plate reader, cherry-picked samples, selectivity assay for caspase-6 inhibitor project, dose response (AID 743293)
[10] = biological target: T4, Mitochondrial peptide methionine sulfoxide reductase (Bos taurus, UniProt P54149); format: functional;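 also: absorbance read-out, biochemical high-throughput dose-response screen for MsrA inhibitors, confirmatory; recombinant bovine MsrA coupled to E. coli TrxB with NADPH and selenocystamine; potency is for inhibitors of MsrA activity on DMSO substrate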
T4 sequence (P54149 whole entry): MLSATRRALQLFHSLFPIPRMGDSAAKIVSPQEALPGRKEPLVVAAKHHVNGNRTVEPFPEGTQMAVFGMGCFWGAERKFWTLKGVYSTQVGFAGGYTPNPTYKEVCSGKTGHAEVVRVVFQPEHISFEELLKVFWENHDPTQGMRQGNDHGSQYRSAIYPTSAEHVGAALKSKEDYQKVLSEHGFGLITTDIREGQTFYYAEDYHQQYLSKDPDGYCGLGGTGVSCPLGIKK

[11] = biological target: Neuropeptide Y receptor type 1 (Homo sapiens, UniProt P25929); format: functional;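 also: HEK293 cells with a CNG channel challenged with NPY then isoproterenol; potency as antagonist that reverses NPY suppression of cAMP signal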
Sequence of Neuropeptide Y receptor type 1 (P25929 whole entry): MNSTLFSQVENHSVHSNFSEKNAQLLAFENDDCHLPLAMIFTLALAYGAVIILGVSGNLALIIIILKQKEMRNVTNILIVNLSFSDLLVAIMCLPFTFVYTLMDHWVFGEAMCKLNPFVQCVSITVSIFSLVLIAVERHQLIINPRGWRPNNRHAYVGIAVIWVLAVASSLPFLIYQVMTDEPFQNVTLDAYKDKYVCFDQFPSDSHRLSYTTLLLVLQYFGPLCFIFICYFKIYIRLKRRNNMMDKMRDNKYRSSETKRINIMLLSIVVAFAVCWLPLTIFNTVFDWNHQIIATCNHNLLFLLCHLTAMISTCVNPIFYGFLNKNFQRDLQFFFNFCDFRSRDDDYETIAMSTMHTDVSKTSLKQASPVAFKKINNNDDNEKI

[12] = biological target: Histone-lysine N-methyltransferase NSD2 (Homo sapiens, UniProt O96028); format: biochemical
[13] = biological target: Peroxisome proliferator-activated receptor gamma/Nuclear receptor coactivator 1 (Homo sapiens, UniProt P37231); test: (§1) TR-FRET dose response biochemical High Throughput Screening assay for agonists of the steroid receptor coactivator 1 (SRC-1) recruitment by the peroxisome proliferator-activated receptor gamma (PPAR gamma): non-selective agonists. [Related pubchem assays (depositor defined):AID1300, AID1808, AID504735, AID631]; format: protein assay
[14] = biological target: Neuropeptide Y receptor type 2 (Homo sapiens, UniProt P49146); format: functional, cell-based;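 also: HEK293 cells expressing the receptor and a CNG channel; stimulus was NPY near EC95 followed by isoproterenol to raise cAMP; antagonist potency measured as restoring cAMP signal that NPY suppresses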
[15] = biological target: Peroxisome proliferator-activated receptor gamma/Nuclear receptor coactivator 3 (Homo sapiens, UniProt P37231); test: as §1, with “3 (SRC-3)” for “1 (SRC-1)”, “assays: 1301 (Confirmation screen.), 1048 (Primary screen.)]” for “assays (depositor defined):AID1300, AID1808, AID504735, AID631]”; format: functional
Sequence of Peroxisome proliferator-activated receptor gamma/Nuclear receptor coactivator 3 (P37231 whole entry): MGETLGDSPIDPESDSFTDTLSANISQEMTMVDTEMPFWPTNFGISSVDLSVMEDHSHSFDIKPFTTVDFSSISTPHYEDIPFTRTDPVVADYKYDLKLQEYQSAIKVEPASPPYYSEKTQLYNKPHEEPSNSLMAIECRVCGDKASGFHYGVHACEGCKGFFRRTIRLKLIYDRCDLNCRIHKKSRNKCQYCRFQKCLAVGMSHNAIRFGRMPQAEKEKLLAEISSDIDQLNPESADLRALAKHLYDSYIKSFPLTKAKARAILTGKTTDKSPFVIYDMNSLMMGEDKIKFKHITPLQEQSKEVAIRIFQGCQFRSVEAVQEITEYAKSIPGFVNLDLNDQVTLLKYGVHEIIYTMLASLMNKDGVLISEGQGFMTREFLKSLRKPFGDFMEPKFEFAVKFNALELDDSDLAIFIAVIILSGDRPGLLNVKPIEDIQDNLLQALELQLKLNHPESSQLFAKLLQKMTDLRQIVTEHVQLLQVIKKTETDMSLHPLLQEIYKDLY
Sequence of Peroxisome proliferator-activated receptor gamma/Nuclear receptor coactivator 3 (Q9Y6Q9 whole entry, further chain): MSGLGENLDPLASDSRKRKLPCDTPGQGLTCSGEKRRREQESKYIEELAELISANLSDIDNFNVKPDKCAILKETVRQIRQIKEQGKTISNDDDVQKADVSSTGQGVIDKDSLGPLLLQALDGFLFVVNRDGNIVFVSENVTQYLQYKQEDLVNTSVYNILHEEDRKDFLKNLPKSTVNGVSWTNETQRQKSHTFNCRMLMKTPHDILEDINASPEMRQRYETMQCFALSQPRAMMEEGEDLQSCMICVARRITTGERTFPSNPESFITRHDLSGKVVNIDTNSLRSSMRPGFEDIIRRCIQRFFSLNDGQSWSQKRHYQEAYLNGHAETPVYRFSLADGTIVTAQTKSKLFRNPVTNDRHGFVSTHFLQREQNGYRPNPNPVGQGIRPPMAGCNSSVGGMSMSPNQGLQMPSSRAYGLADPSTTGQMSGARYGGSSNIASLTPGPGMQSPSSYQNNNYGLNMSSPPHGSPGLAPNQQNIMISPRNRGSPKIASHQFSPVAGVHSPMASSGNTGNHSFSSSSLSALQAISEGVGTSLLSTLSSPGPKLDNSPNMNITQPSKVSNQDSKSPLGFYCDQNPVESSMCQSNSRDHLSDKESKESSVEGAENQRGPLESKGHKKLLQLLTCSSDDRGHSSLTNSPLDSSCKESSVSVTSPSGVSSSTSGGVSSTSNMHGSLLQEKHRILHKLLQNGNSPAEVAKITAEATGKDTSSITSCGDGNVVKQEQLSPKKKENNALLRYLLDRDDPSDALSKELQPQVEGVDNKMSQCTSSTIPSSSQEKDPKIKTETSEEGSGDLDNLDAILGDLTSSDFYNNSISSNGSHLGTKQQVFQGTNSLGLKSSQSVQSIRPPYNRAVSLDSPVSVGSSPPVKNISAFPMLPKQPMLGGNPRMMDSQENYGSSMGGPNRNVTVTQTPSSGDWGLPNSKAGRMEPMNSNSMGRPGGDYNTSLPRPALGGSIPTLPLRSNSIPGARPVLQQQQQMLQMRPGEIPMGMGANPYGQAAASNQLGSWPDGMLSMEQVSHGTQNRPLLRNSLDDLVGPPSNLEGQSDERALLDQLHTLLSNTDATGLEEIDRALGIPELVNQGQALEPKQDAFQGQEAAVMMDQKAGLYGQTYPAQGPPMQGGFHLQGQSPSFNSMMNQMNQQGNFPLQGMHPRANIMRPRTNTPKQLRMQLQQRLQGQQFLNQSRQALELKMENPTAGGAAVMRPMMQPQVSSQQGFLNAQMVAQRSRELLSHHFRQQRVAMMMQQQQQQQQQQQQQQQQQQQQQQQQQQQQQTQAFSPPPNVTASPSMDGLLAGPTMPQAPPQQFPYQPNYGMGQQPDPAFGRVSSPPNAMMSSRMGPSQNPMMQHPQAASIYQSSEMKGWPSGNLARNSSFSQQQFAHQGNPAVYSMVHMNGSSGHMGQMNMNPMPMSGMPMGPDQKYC

[16] = biological target: G-protein coupled receptor 55 (Homo sapiens, UniProt Q9Y2T6); test: inhibition of LPI-stimulated GPR55 beta-arrestin translocation – imaging, U2OS, beta-arrestin-GFP, LPI agonist, primary screen (AID 2013); format: functional;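 also: antagonist potency measured as reduced agonist-driven arrestin aggregation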
[17] = tested on: BJ; test: BJ-TERT-LT-ST fibroblast viability loss – cell-based, RAS-independent, luminescence, dose response (AID 1935); format: functional; conditions: Homo sapiens;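 also: BJ fibroblasts immortalized with TERT plus LT and ST oncogenes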
[18] = biological target: Mothers against decapentaplegic homolog 3 (Homo sapiens, UniProt P84022); test: inhibitors of SMAD-driven TGF-beta signaling – dose response (AID 715); format: functional
[19] = IC50 of Artemis nuclease activity blockers – biochemical, fluorescence intensity, dose response (AID 720701); format: functional;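 also: Artemis endonuclease enzyme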
[20] = tested on: Jurkat; test: SAR Analysis of small molecule inhibitors of T-cell specific antigen receptor-induced NF-kB activation in a Jurkat cell line using a luminescence assay. [Related pubchem assays (depositor defined):AID435003, AID435012, AID465]; format: functional, cell-based; conditions: Homo sapiens

SMILES: COc1cc(-c2ccc(Nc3ccccc3C(=O)O)c(OC)c2)ccc1Nc1ccccc1C(=O)O
- IC50 [1]: 12.7 µM (inconclusive)
- IC50 [2]: 3.91 µM (active)
- IC50 [3]: 7.61 µM (active)
- IC50 [4]: 7.6 µM (active)
- IC50 [5]: 0.647 µM (active)
- IC50 [6]: 41.4 µM (active)

SMILES: COC(CNC(=O)c1ccc2c3c(onc13)-c1ccccc1C2=O)OC
- IC50 [7]: 1.63 µM (active)

SMILES: COc1ccc(OC)c(Nc2cc3ccccc3c(O)n2)c1
- AC50 [8]: 5.9 µM (active)
- AC50 [9]: 10.1 µM (active)

SMILES: O=C(O)c1ccc(NC2=C/C(=N/S(=O)(=O)c3ccccc3)c3ccccc3C2=O)cc1
- IC50 [10]: 6.42 µM (active)

SMILES: Nc1ccc2c(c1)C(=O)C(=O)c1ccccc1-2
- IC50 [11]: 4.54 µM (active)
- AC50 [12]: 0.273 µM (active)
- EC50 [13]: 12.3 µM (inactive)
- IC50 [14]: 4.25 µM (active)
- EC50 [15]: > 79.4 µM (not active)
- IC50 [16]: 1.36 µM (active)
- EC50 [17]: 3.12 µM (inconclusive)
- IC50 [18]: 9.89 µM (active)
- IC50 [19]: < 0.63 µM (active)

SMILES: CCCC(=O)NC(c1ccccc1OC)c1ccc2cccnc2c1O (stereo not given)
- IC50 [20]: 3.82 µM (active)
